Test results from ChEMBL document CHEMBL1201862, “PubChem BioAssay data set” (2004).
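48-hour exposure; five concentrations; linearly interpolated endpoints. The concentration for 50% growth inhibition is given as GI50.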 Active and inactive are the calls of the source. No stated cut-off is given here; in the data, active = GI50 up to about 1.1 µM and inactive = higher.

Legend:
Experiment in all cases: DTP human tumour cell line panel, 48 h
786-0 = tested on: 786-0
RXF 393 = tested on: RXF 393
M14 = tested on: M14
OVCAR-4 = tested on: OVCAR-4
U-251 = tested on: U-251
HOP-18 = tested on: HOP-18
SW-620 = tested on: SW-620
LXFL 529 = tested on: LXFL 529
UO-31 = tested on: UO-31
CCRF-CEM = tested on: CCRF-CEM
OVCAR-5 = tested on: OVCAR-5
SF-268 = tested on: SF-268
SK-MEL-2 = tested on: SK-MEL-2
SF-539 = tested on: SF-539
RPMI-8226 = tested on: RPMI-8226
UACC-62 = tested on: UACC-62
NCI-H522 = tested on: NCI-H522
KM12 = tested on: KM12
HT-29 = tested on: HT-29
SR = tested on: SR
SNB-78 = tested on: SNB-78
Malme-3M = tested on: Malme-3M
NCI-H23 = tested on: NCI-H23
HCT-15 = tested on: HCT-15
MOLT-4 = tested on: MOLT-4
RXF 631 = tested on: RXF 631
DMS-273 = tested on: DMS-273
HCT-116 = tested on: HCT-116
SN12C = tested on: SN12C
COLO 205 = tested on: COLO 205
K562 = tested on: K562
EKVX = tested on: EKVX
A498 = tested on: A498
SK-MEL-5 = tested on: SK-MEL-5
SNB-19 = tested on: SNB-19
TK-10 = tested on: TK-10
HOP-62 = tested on: HOP-62
NCI-H226 = tested on: NCI-H226
ACHN = tested on: ACHN
LOX IMVI = tested on: LOX IMVI
SF-295 = tested on: SF-295
CAKI-1 = tested on: CAKI-1
UACC-257 = tested on: UACC-257
SNB-75 = tested on: SNB-75
OVCAR-3 = tested on: OVCAR-3
KM-20L2 = tested on: KM-20L2
NCI-H460 = tested on: NCI-H460
OVCAR-8 = tested on: OVCAR-8
SK-OV-3 = tested on: SK-OV-3
A549 = tested on: A549
DMS-114 = tested on: DMS-114
HCC 2998 = tested on: HCC 2998
IGROV-1 = tested on: IGROV-1
DLD-1 = tested on: DLD-1
SK-MEL-28 = tested on: SK-MEL-28
M19-MEL = tested on: M19-MEL
MDA-MB-231 = tested on: MDA-MB-231
HOP-92 = tested on: HOP-92
PC-3 = tested on: PC-3
BT-549 = tested on: BT-549
Hs-578T = tested on: Hs-578T
MDA-MB-435 = tested on: MDA-MB-435
MCF7 = tested on: MCF7
MDA-N = tested on: MDA-N
T47D = tested on: T47D
HL-60 = tested on: HL-60
DU-145 = tested on: DU-145

COc1cc(NCC(C#N)C#N)ccc1/N=N/c1ccc([N+](=O)[O-])cc1
GI50 (786-0): > 100 µM (inactive) | GI50 (RXF 393): > 100 µM (inactive) | GI50 (M14): > 100 µM (inactive) | GI50 (OVCAR-4): > 100 µM (inactive) | GI50 (U-251): > 100 µM (inactive) | GI50 (HOP-18): > 100 µM (inactive) | GI50 (SW-620): > 100 µM (inactive) | GI50 (LXFL 529): 37.6 µM (inactive) | GI50 (UO-31): > 100 µM (inactive) | GI50 (CCRF-CEM): > 100 µM (inactive) | GI50 (OVCAR-5): > 100 µM (inactive) | GI50 (SF-268): > 100 µM (inactive) | GI50 (SK-MEL-2): > 100 µM (inactive) | GI50 (SF-539): > 100 µM (inactive) | GI50 (RPMI-8226): 49.1 µM (inactive) | GI50 (UACC-62): > 100 µM (inactive) | GI50 (NCI-H522): 46.5 µM (inactive) | GI50 (KM12): > 100 µM (inactive) | GI50 (HT-29): > 100 µM (inactive) | GI50 (SR): 49.5 µM (inactive) | GI50 (SNB-78): > 100 µM (inactive) | GI50 (Malme-3M): > 100 µM (inactive) | GI50 (NCI-H23): > 100 µM (inactive) | GI50 (HCT-15): > 100 µM | GI50 (MOLT-4): 58.3 µM (inactive) | GI50 (RXF 631): > 100 µM (inactive) | GI50 (DMS-273): > 100 µM (inactive) | GI50 (HCT-116): > 100 µM (inactive) | GI50 (SN12C): > 100 µM (inactive) | GI50 (COLO 205): > 100 µM (inactive) | GI50 (K562): 91.2 µM (inactive) | GI50 (EKVX): > 100 µM (inactive) | GI50 (A498): > 100 µM (inactive) | GI50 (SK-MEL-5): > 100 µM (inactive) | GI50 (SNB-19): 65.5 µM (inactive) | GI50 (TK-10): > 100 µM (inactive) | GI50 (HOP-62): > 100 µM (inactive) | GI50 (NCI-H226): > 100 µM (inactive) | GI50 (ACHN): > 100 µM (inactive) | GI50 (LOX IMVI): > 100 µM (inactive) | GI50 (SF-295): > 100 µM (inactive) | GI50 (CAKI-1): > 100 µM (inactive) | GI50 (UACC-257): > 100 µM (inactive) | GI50 (SNB-75): 30.7 µM (inactive) | GI50 (OVCAR-3): 64.3 µM (inactive) | GI50 (KM-20L2): > 100 µM (inactive) | GI50 (NCI-H460): > 100 µM (inactive) | GI50 (OVCAR-8): > 100 µM (inactive) | GI50 (SK-OV-3): > 100 µM (inactive) | GI50 (A549): > 100 µM (inactive) | GI50 (DMS-114): 65.2 µM (inactive) | GI50 (HCC 2998): > 100 µM (inactive) | GI50 (IGROV-1): > 100 µM (inactive) | GI50 (DLD-1): > 100 µM (inactive) | GI50 (SK-MEL-28): > 100 µM (inactive) | GI50 (M19-MEL): > 100 µM (inactive)

O=C1/C(=C/c2ccc3c(c2)OCO3)CCC1CN1CCOCC1 (stereo not drawn)
GI50 (786-0): 5.42 µM (inactive) | GI50 (RXF 393): 11.4 µM (inactive) | GI50 (MDA-MB-231): 3.36 µM (inactive) | GI50 (M14): 4.22 µM (inactive) | GI50 (HOP-92): 9.89 µM (inactive) | GI50 (OVCAR-4): 6.73 µM (inactive) | GI50 (PC-3): 2.17 µM (inactive) | GI50 (U-251): 7.05 µM (inactive) | GI50 (HOP-18): 17.3 µM (inactive) | GI50 (SW-620): 2.07 µM (inactive) | GI50 (LXFL 529): 2.65 µM (inactive) | GI50 (UO-31): 15.8 µM (inactive) | GI50 (CCRF-CEM): 1.54 µM (inactive) | GI50 (BT-549): 18 µM (inactive) | GI50 (OVCAR-5): 14 µM (inactive) | GI50 (SF-268): 10.5 µM (inactive) | GI50 (Hs-578T): 3.84 µM (inactive) | GI50 (SK-MEL-2): 12 µM (inactive) | GI50 (SF-539): 13 µM (inactive) | GI50 (RPMI-8226): 0.436 µM (active) | GI50 (MDA-MB-435): 14.3 µM (inactive) | GI50 (MCF7): 2.1 µM (inactive) | GI50 (UACC-62): 9.16 µM (inactive) | GI50 (MDA-N): 2.04 µM (inactive) | GI50 (NCI-H522): 1.04 µM (active) | GI50 (KM12): 4.65 µM (inactive) | GI50 (HT-29): 5.77 µM (inactive) | GI50 (SR): 1.65 µM (inactive) | GI50 (SNB-78): 9.66 µM (inactive) | GI50 (Malme-3M): 7.31 µM (inactive) | GI50 (NCI-H23): 8.83 µM (inactive) | GI50 (HCT-15): 2.94 µM | GI50 (MOLT-4): 1.95 µM (inactive) | GI50 (RXF 631): 15.8 µM (inactive) | GI50 (DMS-273): 8.79 µM (inactive) | GI50 (HCT-116): 3.25 µM (inactive) | GI50 (SN12C): 4.06 µM (inactive) | GI50 (COLO 205): 9.73 µM (inactive) | GI50 (K562): 2.03 µM (inactive) | GI50 (EKVX): 16.6 µM (inactive) | GI50 (A498): 14.8 µM (inactive) | GI50 (T47D): 3.98 µM (inactive) | GI50 (SK-MEL-5): 9.16 µM (inactive) | GI50 (SNB-19): 15.4 µM (inactive) | GI50 (TK-10): 12.4 µM (inactive) | GI50 (HOP-62): 16.3 µM (inactive) | GI50 (NCI-H226): 16.7 µM (inactive) | GI50 (ACHN): 10.7 µM (inactive) | GI50 (LOX IMVI): 2.44 µM (inactive) | GI50 (HL-60): 1.44 µM (inactive) | GI50 (SF-295): 18.2 µM (inactive) | GI50 (CAKI-1): 3.25 µM (inactive) | GI50 (UACC-257): 9.68 µM (inactive) | GI50 (SNB-75): 14.6 µM (inactive) | GI50 (OVCAR-3): 7.93 µM (inactive) | GI50 (KM-20L2): 14.8 µM (inactive) | GI50 (NCI-H460): 17.4 µM (inactive) | GI50 (OVCAR-8): 7.64 µM (inactive) | GI50 (SK-OV-3): 18.4 µM (inactive) | GI50 (A549): 20.9 µM (inactive) | GI50 (DMS-114): 5.83 µM (inactive) | GI50 (HCC 2998): 8.75 µM (inactive) | GI50 (IGROV-1): 16.1 µM (inactive) | GI50 (DU-145): 16 µM (inactive) | GI50 (DLD-1): 2.39 µM (inactive) | GI50 (SK-MEL-28): 3.4 µM (inactive) | GI50 (M19-MEL): 4.53 µM (inactive)
